Results as given in patent US9669003B2, “Use of flavone and flavanone derivatives in preparation of sedative and hypnotic drugs” (priority 2012, dated 2017).
Marks after values point to notes of the source that are not given here.

test system: Kunming mice; test: Influence on autonomic activity of normal mice (ZIL-2 mice autonomic activity meter, counts within 10 min); format: in vivo; settings: intragastric, 25 mg/kg, 1 h after administration, x ± s, n = 10
Outline: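 Kunming mice (10 per group, half each sex) were dosed at 25, 50 or 100 mg/kg in 0.5% CMC-Na. Spontaneous activity counts over 10 min were recorded at 1 h, 2 h and 24 h post-dose. Groups were compared by ANOVA with Dunnett's test after Levene's check.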

SMILES | Times of activities in 1 h after drug administration/10 min
CCc1cc(C2CC(=O)c3cc([N+](=O)[O-])c(SC#N)c(C4CCNC4)c3O2)ccc1C(=O)c1ccccc1 (stereo not drawn) [Example 54] | 307.3 ± 65.2 /10 min
COc1cc(-c2cc(=O)c3c(OC)c(OC)c(OC)cc3o2)cc(OC)c1OC [Example 13, 5,6,7,3′,4′,5′-hexamethoxyl-flavone] | 293.2 ± 47.1 /10 min
O=C1CC(c2ccc(O)c(O)c2)Oc2cc(O)cc(O)c21 (stereo not drawn) [Example 71] | 301.5 ± 58.2 /10 min

same assay, conditions: intragastric, 25 mg/kg, 2 h after administration, x ± s, n = 10

SMILES | Times of activities in 2 h after drug administration/10 min
CCc1cc(C2CC(=O)c3cc([N+](=O)[O-])c(SC#N)c(C4CCNC4)c3O2)ccc1C(=O)c1ccccc1 (stereo not drawn) [Example 54] | 287.3 ± 72.9 /10 min
COc1cc(-c2cc(=O)c3c(OC)c(OC)c(OC)cc3o2)cc(OC)c1OC [Example 13, 5,6,7,3′,4′,5′-hexamethoxyl-flavone] | 278.5 ± 42.8 /10 min
O=C1CC(c2ccc(O)c(O)c2)Oc2cc(O)cc(O)c21 (stereo not drawn) [Example 71] | 267.8 ± 32.9 /10 min

same assay, conditions: intragastric, 25 mg/kg, 24 h after administration, x ± s, n = 10

SMILES | Times of activities in 24 h after drug administration/10 min
CCc1cc(C2CC(=O)c3cc([N+](=O)[O-])c(SC#N)c(C4CCNC4)c3O2)ccc1C(=O)c1ccccc1 (stereo not drawn) [Example 54] | 331.2 ± 67.4 /10 min
COc1cc(-c2cc(=O)c3c(OC)c(OC)c(OC)cc3o2)cc(OC)c1OC [Example 13, 5,6,7,3′,4′,5′-hexamethoxyl-flavone] | 302.8 ± 67.2 /10 min
O=C1CC(c2ccc(O)c(O)c2)Oc2cc(O)cc(O)c21 (stereo not drawn) [Example 71] | 318.0 ± 66.9 /10 min

same assay, conditions: intragastric, 50 mg/kg, 1 h after administration, x ± s, n = 10

SMILES | Times of activities in 1 h after drug administration/10 min
CCc1cc(C2CC(=O)c3cc([N+](=O)[O-])c(SC#N)c(C4CCNC4)c3O2)ccc1C(=O)c1ccccc1 (stereo not drawn) [Example 54] | 252.8 ± 62.1 /10 min
COc1cc(-c2cc(=O)c3c(OC)c(OC)c(OC)cc3o2)cc(OC)c1OC [Example 13, 5,6,7,3′,4′,5′-hexamethoxyl-flavone] | 280.7 ± 61.3 /10 min
O=C1CC(c2ccc(O)c(O)c2)Oc2cc(O)cc(O)c21 (stereo not drawn) [Example 71] | 278.9 ± 45.0 /10 min

same assay, conditions: intragastric, 50 mg/kg, 2 h after administration, x ± s, n = 10

SMILES | Times of activities in 2 h after drug administration/10 min
CCc1cc(C2CC(=O)c3cc([N+](=O)[O-])c(SC#N)c(C4CCNC4)c3O2)ccc1C(=O)c1ccccc1 (stereo not drawn) [Example 54] | 240.2 ± 62.6 /10 min
COc1cc(-c2cc(=O)c3c(OC)c(OC)c(OC)cc3o2)cc(OC)c1OC [Example 13, 5,6,7,3′,4′,5′-hexamethoxyl-flavone] | 278.6 ± 47.5 /10 min
O=C1CC(c2ccc(O)c(O)c2)Oc2cc(O)cc(O)c21 (stereo not drawn) [Example 71] | 263.0 ± 46.3 /10 min

same assay, conditions: intragastric, 50 mg/kg, 24 h after administration, x ± s, n = 10

SMILES | Times of activities in 24 h after drug administration/10 min
CCc1cc(C2CC(=O)c3cc([N+](=O)[O-])c(SC#N)c(C4CCNC4)c3O2)ccc1C(=O)c1ccccc1 (stereo not drawn) [Example 54] | 320.7 ± 75.1 /10 min
COc1cc(-c2cc(=O)c3c(OC)c(OC)c(OC)cc3o2)cc(OC)c1OC [Example 13, 5,6,7,3′,4′,5′-hexamethoxyl-flavone] | 309.2 ± 81.3 /10 min
O=C1CC(c2ccc(O)c(O)c2)Oc2cc(O)cc(O)c21 (stereo not drawn) [Example 71] | 322.9 ± 81.4 /10 min

same assay, conditions: intragastric, 100 mg/kg, 1 h after administration, x ± s, n = 10

SMILES | Times of activities in 1 h after drug administration/10 min
CCc1cc(C2CC(=O)c3cc([N+](=O)[O-])c(SC#N)c(C4CCNC4)c3O2)ccc1C(=O)c1ccccc1 (stereo not drawn) [Example 54] | 205.3 ± 42.8 /10 min
COc1cc(-c2cc(=O)c3c(OC)c(OC)c(OC)cc3o2)cc(OC)c1OC [Example 13, 5,6,7,3′,4′,5′-hexamethoxyl-flavone] | 247.2 ± 35.6 /10 min
O=C1CC(c2ccc(O)c(O)c2)Oc2cc(O)cc(O)c21 (stereo not drawn) [Example 71] | 249.3 ± 41.3 /10 min

same assay, conditions: intragastric, 100 mg/kg, 2 h after administration, x ± s, n = 10

SMILES | Times of activities in 2 h after drug administration/10 min
CCc1cc(C2CC(=O)c3cc([N+](=O)[O-])c(SC#N)c(C4CCNC4)c3O2)ccc1C(=O)c1ccccc1 (stereo not drawn) [Example 54] | 198.3 ± 48.5 /10 min
COc1cc(-c2cc(=O)c3c(OC)c(OC)c(OC)cc3o2)cc(OC)c1OC [Example 13, 5,6,7,3′,4′,5′-hexamethoxyl-flavone] | 225.3 ± 44.2 /10 min
O=C1CC(c2ccc(O)c(O)c2)Oc2cc(O)cc(O)c21 (stereo not drawn) [Example 71] | 245.8 ± 39.6 /10 min

same assay, conditions: intragastric, 100 mg/kg, 24 h after administration, x ± s, n = 10

SMILES | Times of activities in 24 h after drug administration/10 min
CCc1cc(C2CC(=O)c3cc([N+](=O)[O-])c(SC#N)c(C4CCNC4)c3O2)ccc1C(=O)c1ccccc1 (stereo not drawn) [Example 54] | 315.3 ± 79.2 /10 min
COc1cc(-c2cc(=O)c3c(OC)c(OC)c(OC)cc3o2)cc(OC)c1OC [Example 13, 5,6,7,3′,4′,5′-hexamethoxyl-flavone] | 291.5 ± 69.5 /10 min
O=C1CC(c2ccc(O)c(O)c2)Oc2cc(O)cc(O)c21 (stereo not drawn) [Example 71] | 325.7 ± 60.9 /10 min

test system: Kunming mice; test: Influence on hypnosis effect with pentobarbital sodium doses below the threshold (25 mg/kg i.p.); format: in vivo; settings: test drug 25 mg/kg intragastric single dose, pentobarbital sodium 25 mg/kg i.p. 60 min later, sleep observed in 30 min, n = 10
Outline: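 Kunming mice (10 per group, half female) given single oral doses of 25, 50 or 100 mg/kg in 0.5% CMC-Na; 60 min later pentobarbital sodium 25 mg/kg i.p. Sleep (righting reflex lost >1 min) scored within 30 min as percentage asleep, χ2 test.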

SMILES | Number of sleeping animals | rate of sleeping (%)
CCc1cc(C2CC(=O)c3cc([N+](=O)[O-])c(SC#N)c(C4CCNC4)c3O2)ccc1C(=O)c1ccccc1 (stereo not drawn) [Example 54] | 3 | 30%
COc1cc(-c2cc(=O)c3c(OC)c(OC)c(OC)cc3o2)cc(OC)c1OC [Example 13, 5,6,7,3′,4′,5′-hexamethoxyl-flavone] | 4 | 40* %
O=C1CC(c2ccc(O)c(O)c2)Oc2cc(O)cc(O)c21 (stereo not drawn) [Example 71] | 3 | 30%

same assay, conditions: test drug 50 mg/kg intragastric single dose, pentobarbital sodium 25 mg/kg i.p. 60 min later, sleep observed in 30 min, n = 10

SMILES | Number of sleeping animals | rate of sleeping (%)
CCc1cc(C2CC(=O)c3cc([N+](=O)[O-])c(SC#N)c(C4CCNC4)c3O2)ccc1C(=O)c1ccccc1 (stereo not drawn) [Example 54] | 5 | 50** %
COc1cc(-c2cc(=O)c3c(OC)c(OC)c(OC)cc3o2)cc(OC)c1OC [Example 13, 5,6,7,3′,4′,5′-hexamethoxyl-flavone] | 6 | 60** %
O=C1CC(c2ccc(O)c(O)c2)Oc2cc(O)cc(O)c21 (stereo not drawn) [Example 71] | 5 | 50* %

same assay, conditions: test drug 100 mg/kg intragastric single dose, pentobarbital sodium 25 mg/kg i.p. 60 min later, sleep observed in 30 min, n = 10

SMILES | Number of sleeping animals | rate of sleeping (%)
CCc1cc(C2CC(=O)c3cc([N+](=O)[O-])c(SC#N)c(C4CCNC4)c3O2)ccc1C(=O)c1ccccc1 (stereo not drawn) [Example 54] | 7 | 70** %
COc1cc(-c2cc(=O)c3c(OC)c(OC)c(OC)cc3o2)cc(OC)c1OC [Example 13, 5,6,7,3′,4′,5′-hexamethoxyl-flavone] | 7 | 70** %
O=C1CC(c2ccc(O)c(O)c2)Oc2cc(O)cc(O)c21 (stereo not drawn) [Example 71] | 6 | 60** %

test system: Kunming mice; test: Influence on hypnosis effect with pentobarbital sodium doses at the threshold (50 mg/kg i.p.); format: in vivo; settings: 25 mg/kg intragastric single dose, pentobarbital sodium 50 mg/kg i.p. 60 min later, x ± s, n = 10
Outline: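 Kunming mice (10/group, half each sex) received compound in 0.5% CMC-Na intragastrically at 25, 50 or 100 mg/kg; 60 min later given 0.3% sodium pentobarbital 50 mg/kg i.p. Sleep latency and duration recorded by loss of righting reflex over 1 min; ANOVA and χ2 for sleep incidence.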

SMILES | duration of sleep | time to sleep
CCc1cc(C2CC(=O)c3cc([N+](=O)[O-])c(SC#N)c(C4CCNC4)c3O2)ccc1C(=O)c1ccccc1 (stereo not drawn) [Example 54] | 35.81 ± 17.2 min | 4.84 ± 1.64 min
COc1cc(-c2cc(=O)c3c(OC)c(OC)c(OC)cc3o2)cc(OC)c1OC [Example 13, 5,6,7,3′,4′,5′-hexamethoxyl-flavone] | 39.25 ± 17.25 min | 4.26 ± 1.23 min
O=C1CC(c2ccc(O)c(O)c2)Oc2cc(O)cc(O)c21 (stereo not drawn) [Example 71] | 30.48 ± 22.67 min | 5.55 ± 1.83 min

same assay, conditions: 50 mg/kg intragastric single dose, pentobarbital sodium 50 mg/kg i.p. 60 min later, x ± s, n = 10

SMILES | duration of sleep | time to sleep
CCc1cc(C2CC(=O)c3cc([N+](=O)[O-])c(SC#N)c(C4CCNC4)c3O2)ccc1C(=O)c1ccccc1 (stereo not drawn) [Example 54] | 43.53 ± 14.97 min | 4.33 ± 1.87 min
COc1cc(-c2cc(=O)c3c(OC)c(OC)c(OC)cc3o2)cc(OC)c1OC [Example 13, 5,6,7,3′,4′,5′-hexamethoxyl-flavone] | 57.33 ± 29.41 min | 3.93 ± 1.15 min
O=C1CC(c2ccc(O)c(O)c2)Oc2cc(O)cc(O)c21 (stereo not drawn) [Example 71] | 36.63 ± 20.19 min | 3.73 ± 1.39 min

same assay, conditions: 100 mg/kg intragastric single dose, pentobarbital sodium 50 mg/kg i.p. 60 min later, x ± s, n = 10

SMILES | duration of sleep | time to sleep
CCc1cc(C2CC(=O)c3cc([N+](=O)[O-])c(SC#N)c(C4CCNC4)c3O2)ccc1C(=O)c1ccccc1 (stereo not drawn) [Example 54] | 47.53 ± 15.92 min | 3.63 ± 1.54 min
COc1cc(-c2cc(=O)c3c(OC)c(OC)c(OC)cc3o2)cc(OC)c1OC [Example 13, 5,6,7,3′,4′,5′-hexamethoxyl-flavone] | 59.23 ± 25.36 min | 3.83 ± 1.21 min
O=C1CC(c2ccc(O)c(O)c2)Oc2cc(O)cc(O)c21 (stereo not drawn) [Example 71] | 56.62 ± 24.57 min | 3.82 ± 1.40 min
